Test systems include HCT-15 colon; 786-0 renal; LOX IMVI melanoma; MOLT-4 leukemia; A498 renal; MDA-MB-435; KM12 colon; SF-268 CNS; SNB-75 CNS; MCF7 breast.
Assay in all cases: NCI tumour cell line growth inhibition, 48 h

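Assay format: 96-well plates, 48-hour exposure. GI50: concentration for 50% inhibition of growth. TGI is the concentration that stops growth completely.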

Among the data in PubChem BioAssay (NCI) are GI50 and TGI values, retold here.

Consider `CC(C)(C)n1cc(-c2ccnc(NCCCNS(=O)(=O)c3ccc(Br)cc3)c2)c(-c2cccc(O)c2)n1`, for which the GI50 in the assay on HCT-15 colon is 1.48 µM; in the assay with 786-0 renal, 1.66 µM; in the assay on LOX IMVI melanoma, 1.77 µM; in the assay on MOLT-4 leukemia it was 2.3 µM; with A498 renal it was 1.33 µM; in the assay on MDA-MB-435, 1.82 µM. Also, the GI50 is 2.11 µM in the assay on KM12 colon, 2.4 µM in the assay with SF-268 CNS, 1.76 µM in the assay on SNB-75 CNS and 1.88 µM in the assay on MCF7 breast. For the same molecule, the TGI was 3.17 µM in the assay with HCT-15 colon; 3.16 µM in the assay with 786-0 renal; 3.2 µM in the assay on LOX IMVI melanoma; 6.74 µM with MOLT-4 leukemia; 3.47 µM in the assay with A498 renal; 3.29 µM in the assay on MDA-MB-435. For the same molecule, the TGI in the assay on KM12 colon was found to be 4.37 µM; in the assay on SF-268 CNS, 6.48 µM; with SNB-75 CNS, 4.11 µM; in the assay with MCF7 breast it was 3.98 µM.
As for `N=c1ccc2nc3c(cc(N)c4ccccc43)oc-2c1`, the GI50 with HCT-15 colon was 0.214 µM; in the assay on 786-0 renal, 1.07 µM; with LOX IMVI melanoma, 0.103 µM; in the assay with MOLT-4 leukemia it was 0.287 µM; with MDA-MB-435, 0.182 µM; in the assay on KM12 colon, 0.236 µM. The GI50 in the assay with SF-268 CNS was 0.431 µM; in the assay on SNB-75 CNS it was 0.191 µM; in the assay with MCF7 breast, 0.162 µM. The TGI with HCT-15 colon was determined as 1.13 µM; in the assay on 786-0 renal, 2.3 µM; in the assay on LOX IMVI melanoma it was 0.378 µM; in the assay with MOLT-4 leukemia, 1.05 µM; with A498 renal it was 0.78 µM; in the assay with MDA-MB-435, 0.338 µM. Besides, the TGI is 0.845 µM in the assay with KM12 colon, 1.75 µM in the assay with SF-268 CNS, 0.654 µM in the assay with SNB-75 CNS and 0.342 µM with MCF7 breast.
As to `CCCCCCNC(=O)n1cc(F)c(=O)[nH]c1=O`, the GI50 was 4.26 µM with HCT-15 colon; 10.6 µM in the assay with 786-0 renal; 2.06 µM in the assay with LOX IMVI melanoma; 7.28 µM in the assay with MOLT-4 leukemia; 18 µM with A498 renal; 1.21 µM with MDA-MB-435. Further, the GI50 in the assay with KM12 colon was 4.43 µM; with SF-268 CNS, 9.07 µM; with SNB-75 CNS, 7.51 µM; in the assay on MCF7 breast it was 0.65 µM. The TGI in the assay with HCT-15 colon is 28.7 µM; with 786-0 renal, 23.4 µM; in the assay on LOX IMVI melanoma, 16.3 µM; in the assay with MOLT-4 leukemia, 44.2 µM; in the assay on A498 renal, more than 100 µM; in the assay with MDA-MB-435, 24.2 µM. Further, the TGI in the assay with KM12 colon was more than 100 µM; in the assay on SF-268 CNS it was 87.9 µM; in the assay with SNB-75 CNS it was 43 µM; in the assay on MCF7 breast, 16.8 µM.
For the molecule `COC(=O)c1ccc2c(c1)C(=O)c1c-2n(CCCN)c(=O)c2cc(OC)c(OC)cc12`, the GI50 was 14.1 µM in the assay with HCT-15 colon; 9.72 µM in the assay on 786-0 renal; 14.6 µM in the assay on LOX IMVI melanoma; 1.83 µM with MOLT-4 leukemia; 17.4 µM in the assay with A498 renal; 21.6 µM in the assay with MDA-MB-435. For the same molecule, the GI50 was 7.47 µM in the assay with KM12 colon, 18.6 µM in the assay on SF-268 CNS, 16.5 µM with SNB-75 CNS and 8.79 µM with MCF7 breast. The TGI came out at 30.5 µM in the assay on HCT-15 colon; 28.1 µM in the assay on 786-0 renal; 32 µM in the assay on LOX IMVI melanoma; 4.67 µM in the assay on MOLT-4 leukemia; 36.2 µM with A498 renal; 46.2 µM in the assay on MDA-MB-435. The TGI in the assay on KM12 colon was found to be 26 µM; with SF-268 CNS, 42 µM; with SNB-75 CNS, 32.9 µM; in the assay on MCF7 breast, 29.3 µM.
For the molecule `CC(=O)c1cc(-c2ccccc2N)n(-c2ccc3c(c2)OCO3)c1C`, the GI50 was 0.296 µM in the assay on HCT-15 colon; 0.388 µM in the assay with 786-0 renal; 0.297 µM in the assay on LOX IMVI melanoma; 0.38 µM with MOLT-4 leukemia; 0.195 µM in the assay on A498 renal; 0.163 µM with MDA-MB-435. Also, the GI50 in the assay on KM12 colon is 0.295 µM; with SF-268 CNS it was 0.4 µM; with SNB-75 CNS, 0.255 µM; in the assay with MCF7 breast, 0.32 µM. Further, the TGI is more than 100 µM with HCT-15 colon; more than 100 µM in the assay on 786-0 renal; more than 100 µM in the assay with LOX IMVI melanoma; more than 100 µM with MOLT-4 leukemia; 0.808 µM in the assay on A498 renal; 0.434 µM with MDA-MB-435. Moreover, the TGI was more than 37.7 µM with KM12 colon, more than 100 µM with SF-268 CNS, more than 93.9 µM with SNB-75 CNS and more than 100 µM in the assay on MCF7 breast.
With `COC(=O)C(=O)C(C(=O)C(N)=O)c1nc2ccc(C(=O)c3ccccc3)cc2[nH]c1=O` (centres undefined), the TGI in the assay on HCT-15 colon, with 786-0 renal, in the assay on LOX IMVI melanoma, in the assay on MOLT-4 leukemia, in the assay with A498 renal and in the assay with MDA-MB-435 was more than 100 µM each time. The TGI in the assay on KM12 colon, with SF-268 CNS, in the assay with SNB-75 CNS and with MCF7 breast was more than 100 µM throughout.
With `CC(=O)c1cccc(-c2cccc(-c3ccn(CCN4CCOCC4)n3)c2)c1`, the GI50 in the assay on HCT-15 colon was more than 20 µM; in the assay on 786-0 renal, more than 20 µM; in the assay with LOX IMVI melanoma, more than 20 µM; with MOLT-4 leukemia, more than 20 µM; in the assay on A498 renal, 14.5 µM; in the assay with MDA-MB-435 it was more than 20 µM. Moreover, the GI50 with KM12 colon, with SF-268 CNS, in the assay with SNB-75 CNS and in the assay on MCF7 breast was more than 20 µM throughout. In addition, the TGI in the assay on HCT-15 colon, in the assay on 786-0 renal, in the assay on LOX IMVI melanoma, with MOLT-4 leukemia, in the assay with A498 renal and in the assay on MDA-MB-435 was more than 20 µM throughout. Also, the TGI with KM12 colon, in the assay on SF-268 CNS, with SNB-75 CNS and in the assay on MCF7 breast was more than 20 µM each time.
Turning to `CCCCN(CCCC)CCc1c(C)cc(C)c(CCN(CCCC)CCCC)c1O`, the GI50 in the assay on HCT-15 colon was 3.06 µM; in the assay with 786-0 renal, 2.96 µM; in the assay on LOX IMVI melanoma, 2.67 µM; in the assay with MOLT-4 leukemia, 2.73 µM; in the assay with A498 renal, 2.3 µM; with MDA-MB-435, 3.11 µM. For the same molecule, the GI50 in the assay on KM12 colon was 3.2 µM; in the assay with SF-268 CNS it was 3.23 µM; in the assay on SNB-75 CNS, 2.52 µM; with MCF7 breast, 2.39 µM. The TGI is 13 µM in the assay on HCT-15 colon; 9.93 µM in the assay with 786-0 renal; more than 100 µM in the assay on LOX IMVI melanoma; 10.8 µM with MOLT-4 leukemia; 7.31 µM in the assay with A498 renal; 53.2 µM in the assay with MDA-MB-435. In addition, the TGI is 21.2 µM in the assay with KM12 colon, more than 100 µM in the assay with SF-268 CNS, 40.3 µM with SNB-75 CNS and 8.13 µM in the assay with MCF7 breast.
